Measured values taken from publication PMC5271370, “A High-Content Assay Enables the Automated Screening and Identification of Small Molecules with Specific ALDH1A1-Inhibitory Activity” (PLoS ONE, 2017).
Like-named read-outs stand apart in the source and are kept apart here.

What was measured:
[1] = system: LN-229 cells; test: 1,536-well high-content imaging ALDEFLUOR assay, LN-229; format: cell-based, human
Method: We next sought to test if the fully automated high-content assay could be used to detect ALDH1A1-specific inhibitors.
The ALDEFLUOR kit was purchased from […] Technologies (Vancouver, Canada; #01700). Cells (5 μL) were dispensed into black, optical quality (cyclic olefin copolymer) clear bottom, medium binding TC treated 1,536-well plates (Aurora Microplates, Whitefish MT) using a Multidrop Combi dispenser (ThermoFisher) and incubated overnight (37°C, 5% CO2, 85% RH). Media was subsequently removed by centrifuging plates upside down using a plate adaptor to collect media. A solution of BAAA substrate ([…] Technologies) and Hoechst 33342 (ThermoFisher, final concentrations of 500 nM and 0.5 nM, respectively) in ALDEFLUOR buffer ([…] Technologies #01700) was dispensed onto cells using a Multidrop Combi followed by immediate transfer (23 nL) of compound or control solutions using a Wako Pin-tool (final percentage of DMSO in the cell plates was 0.5%). Unless otherwise noted, all compounds were assayed as 16-point dilutions spanning a final concentration range of 1.4 nM to […]. […] Cells were incubated for 30 minutes or the indicated amount of time at 37°C, 5% CO2, 85% RH to allow the conversion of BAAA into BAA. Supernatant was subsequently removed by centrifugation as described above, then ALDEFLUOR buffer (3 μl) was dispensed by Multidrop Combi before imaging on an IN Cell 2200 (GE Healthcare).
The above assay was modified for an online robotic screening system. After cell plating and overnight incubation, 4 μL of media were removed using a 64-tip metal aspirator head on a Wako aspirator station, leaving 1 μL remaining in the well, followed by a 4 μL dispense of BAAA and Hoechst 33342 in ALDEFLUOR buffer, for a final concentration of 500 nM and 0.5 nM, respectively. Immediately following the dispense, 23 nL of compound or control solutions were transferred using a Wako Pin-tool. […] Plates were then immediately read on the IN Cell 2200 as described below.
For images captured on the IN Cell 2200 widefield automated microscope, a 10x 0.45 NA Plan Apo objective lens was used to capture the entire well of the 1,536-well plate using standard DAPI (390/18x, 432/48m) and FITC (475/28x, 525/48m) filter sets at 50 msec and 100 msec exposures, respectively. Images were subsequently analyzed using IN Cell Investigator v1.6.2 analysis software’s canned Multi-Target Analysis algorithm (GE Healthcare). […]
The same controls were also used for the calculation of the Z’ factor for each assay. The Z’ factor, a measure of assay quality control, was determined as previously described. […] All concentration–response curves were fitted as before and IC50 were calculated with the GraphPad Prism software.

[2] = system: ALDH1A2; details: reported ALDH target 1A2; read-out: Reported Biochemical IC50, ALDH1A2; cited from earlier work
[3] = system: ALDH1A3; details: reported ALDH target 1A3; read-out: Reported Biochemical IC50, ALDH1A3; cited from earlier work

SMILES	IC50 ([1]; 1,000 cells/well, 500 nM substrate, 30 minutes, read-out: ALDEFLUOR IC50 LN-229) [µM]	IC50 [2] [µM]	IC50 [3] [µM]	IC50 ([1]; Homo sapiens, LN-229, read-out: ALDEFLUOR IC50 LN229, retest of screen hits, 11-point dose response 0.77 nM to 45.8 μM) [µM]	IC50 ([1]; read-out: ALDEFLUOR IC50 LN229, retest of screen hits, 11-point dose response 0.77 nM to 45.8 μM) [µM]
CCN(CC)c1ccc(C=O)cc1 [DEAB, 4-N,N-diethylaminobenzaldehyde]	~3.48	1.2	3		
CC(C)N(C(=O)CCl)c1ccccc1 [Propachlor]				16	16.1
